# Starred links: 1 amine or outer side, 2 acyl side, 3 side chain; linkers in the order of their positions; H or OH if unused. Positions of bridges follow the written chain, without caps; N, C: chain ends. Non-standard residues stand in square brackets, D forms with d. Residues, ends and D or L forms follow the SMILES beside them. Chains are numbered I, II in the order given. No end group written: not given here. *: point of attachment. Fluorescein(5-Mal) = O=C1OC2(c3ccc(O)cc3Oc3cc(O)ccc32)c2ccc(N3C(=O)CC(*)C3=O)cc21; CH2 = C([*:1])[*:2]
# Experiments:
# [1] = test system: HeLa cells; assay: Flow cytometry annexin V-FITC/PI apoptosis / viability assay; assay type: cell-based
# Procedure: Induction of apoptosis in Hela cell lines by treatment with cyclic peptides was determined using annexin V-FITC/propidium iodide(PI) apoptosis detection kit (BD Biosciences) according to the manufacturer's protocol. 2×10^5 cells/well were treated with inhibitors for 24- and 48-hours in a dose dependent manner. Apoptotic cells were determined as annexin V-FITC positive and PI negative. DMSO and MG132 were used as negative and positive controls respectively. Samples were acquired on a Becton Dickinson LSR II flow cytometer (BD Biosciences) and analyzed using Flowjo software.
# [2] = target: T1, biotin-tetra-UbK48 (Homo sapiens, UniProt P0CG47); assay: Fluorescence-based competitive assay for peptide screening (relative binding vs Ub4_ix); conditions: 5 molar equiv unlabeled peptide, competition with Ub4_ix-FITC; fluorescence inversely proportional to affinity
# T1 construct: a Ub polymer comprises Ub monomers linked to one another at lysine (Lys) residue at position 48 (K48); made in house; host or cells: total chemical synthesis (no expression host)
# Procedure: Streptavidin-coated microplate (96 well plate) was washed (3×100 μl) with HEPES buffer. Then, 1 μg of biotin-tetra-UbK48 in 100 μl of HEPES buffer was incubated in each well for 30 minutes at room temperature (RT). Additional wells were kept free of biotin-tetra-UbK48 for subsequent blank subtraction. Following a washing step, unlabeled candidate peptides, including peptide-standard (Ub4_ix), were incubated in an excess amount (5 molar equiv. relative to biotin-tetra-UbK48) for 30 minutes at RT to saturate binding to the target. […] Finally, following washing, each well was treated with 100 μl of 6 M Gn·HCl at RT for 30 minutes to release the bound peptides. Then, the solution with the released peptides was transferred to Nunc black 96-well plate and fluorescence was measured (λ excitation=480 nm and λ emission=525 nm). The obtained values were then normalized, and compared with peptide standard, while the fluorescence signal was inversely proportional to the binding affinity of the peptide. The calculations of relative change in binding were performed according to the formula: Y=−[1−(a/b)]×100, where Y is the change in the signal relative to the standard Ub4_ix (in percentage); a is signal measured for each peptide variant (in relative fluorescence units); b is signal measured for Ub4_ix.
# The inventors envisioned a screening strategy to proceed through four main steps, each terminated by washings with binding buffer. First, biotin tagged tetra-UbK48 was immobilized in a constant amount (1 μg per well) in streptavidin covered 96 well plate (FIG. 1(i and ii)). Then, unlabeled candidate peptides were incubated in excess in each well to saturate binding to the target. […] Finally, the bound peptides were released from wells by treatment with 6 M guanidine hydrochloride (Gn·HCl) solution followed by measuring the gained fluorescence (FIG. 1(i)). The obtained values were then compared to the fluorescence of the control well containing the unlabeled peptide to calculate relative binding. The gained fluorescence was inversely proportional to the binding affinity of the peptide candidate. […]
# [3] = test system: HeLa cells; assay: Peptide cell uptake, live-cell confocal microscopy; assay type: cell-based; conditions: 1 μM, 2 hours, confocal microscope, FITC signal
# Procedure: HeLa cells (CCL-2™) were purchased from ATCC®. Dulbecco's modified Eagle's medium (DMEM), Eagle's minimum essential medium (EMEM), Fetal bovine serum (FBS), L-Glutamine, antibiotics (penicillin/streptomycin), trypsin/EDTA and phosphate-buffered saline (PBS) were purchased from biological industries. Hoechst 33342 solution (20 mM), SYTOX blue (5 mM) and Lysotracker probes were purchased from Thermo-fisher. μ-Slide 8 well ibiTreat for live-cell confocal microscopy was purchased from ibidi and polylysine hydrobromide was purchased from Sigma. Distribution of fluorescent peptides in live cells was analyzed using a confocal laser scanning microscope (Confocal Zeiss LSM 710) equipped with 40×NA 1.2 water immersion objective. During CLSM analysis the samples were kept at 37° C. in a humidified chamber.
# The cells were washed with PBS buffer followed by addition of fresh phenol-free optical medium and live-cell imaging was carried out using a LSM 710 laser scanning confocal microscope equipped with an environmental control module.
# [4] = target: T2, tetra-Ub K48 (Homo sapiens, UniProt P0CG47); assay: Kd determination of FITC-labeled peptides on immobilized biotin-tetra-UbK48 (fluorescence binding curve); conditions: FITC-labeled peptide, tetra-Ub K48, one site non-cooperative binding model, triplicates; read-out: dissociation constant (Kd)
# T2 construct: a Ub polymer comprises Ub monomers linked to one another at lysine (Lys) residue at position 48 (K48); made in house; host or cells: total chemical synthesis (no expression host)
# Procedure: (1C) The bound peptides are released using Guanidinium-HCl (Gn·HCl) and the fluorescence intensity is measured. (1ii) A non-limiting schematic representation for measuring the dissociation constant (Kd) of FITC-labeled peptide with different concentrations. (1D) A FITC-labeled cyclic peptide with different concentrations are introduced in different wells for binding to the biotin-tetra Ub. (1E) Washing out the unbounded labeled cyclic peptide. (1F) The bound peptides are released using Gn·HCl and the fluorescence intensity is measured. […] All measurements were performed in triplicates.
# To determine the dissociation constant (Kd) of labeled peptides, following immobilization step of biotin-tetra-UbK48, different concentrations of the labeled peptide were incubated. Then, the bound cyclic peptides were released with 6 M Gn·HCl, followed by fluorescence measurement (λex=480 nm and λem=525 nm). […]
# First, biotin tagged tetra-UbK48 was immobilized in a constant amount (1 μg per well) in streptavidin covered 96 well plate (FIG. 1(i and ii)). […] Finally, the bound peptides were released from wells by treatment with 6 M guanidine hydrochloride (Gn·HCl) solution followed by measuring the gained fluorescence (FIG. 1(i)). The obtained values were then compared to the fluorescence of the control well containing the unlabeled peptide to calculate relative binding. […]
compound,measurement,setting,value
"24: methylene group stapled dimer of Ub4_ix_S7C, —S—CH2—S— bridge ({CH2CO}-WLYLDDCGDWWICG; thioether N-13 (inferred); also: dimer: Cys7 joined to Cys7 of second copy by -S-CH2-S- bridge) [compound 24]",early- and late stage apoptosis compared to Ub4_ix,"[1]; HeLa cells, Annexin V/PI, 24 or 48 h",increased early- and late stage apoptosis
same,induction of cell death,"[1]; Hela cells, 24- and 48-hours incubation",able to induce cell death
same,change in the relative fluorescence signal compared to Ub4_ix (improved binding),[2],~57%
"peptide 23: disulfide bond containing dimeric cyclic peptide of Ub4_ix_S7C ({CH2CO}-WLYLDDCGDWWICG; thioether N-13 (inferred); also: dimer joined by disulfide bond, places not given here)",change in the relative fluorescence signal compared to Ub4_ix (improved binding),[2],~70%
"Ub4_ix_S7A: Ub4_ix analogue from Alanine scan, position 7 Ala; likely WLYLDDAGDWWICG (SEQ ID NO: 5) ({CH2CO}-WLYLDDAGDWWICG; thioether N-13 (inferred))",change in the relative fluorescence signal compared to Ub4_ix (improved binding),[2],~13%
"CC[C@H](C)[C@@H]1NC(=O)[C@H](Cc2c[nH]c3ccccc23)NC(=O)[C@H](Cc2c[nH]c3ccccc23)NC(=O)[C@H](CC(=O)O)NC(=O)CNC(=O)[C@H](CSCSC[C@@H]2NC(=O)[C@H](CC(=O)O)NC(=O)[C@H](CC(=O)O)NC(=O)[C@H](CC(C)C)NC(=O)[C@H](Cc3ccc(O)cc3)NC(=O)[C@H](CC(C)C)NC(=O)[C@@H](Cc3c[nH]c4ccccc34)NC(=O)CSC[C@@H](C(=O)NCC(=O)N[C@@H](C)C(=O)N[C@@H](CSC3CC(=O)N(c4ccc5c(c4)C(=O)OC54c5ccc(O)cc5Oc5cc(O)ccc54)C3=O)C(N)=O)NC(=O)[C@H]([C@@H](C)CC)NC(=O)[C@H](Cc3c[nH]c4ccccc34)NC(=O)[C@H](Cc3c[nH]c4ccccc34)NC(=O)[C@H](CC(=O)O)NC(=O)CNC2=O)NC(=O)[C@H](CC(=O)O)NC(=O)[C@H](CC(=O)O)NC(=O)[C@H](CC(C)C)NC(=O)[C@H](Cc2ccc(O)cc2)NC(=O)[C@H](CC(C)C)NC(=O)[C@@H](Cc2c[nH]c3ccccc23)NC(=O)CSC[C@@H](C(=O)NCC(=O)N[C@@H](C)C(=O)N[C@@H](CSC2CC(=O)N(c3ccc4c(c3)C(=O)OC43c4ccc(O)cc4Oc4cc(O)ccc43)C2=O)C(N)=O)NC1=O (some centres unmarked) [peptide 30] (I: {CH2CO}-[dW]LYLDDCGDWWICGAC(Fluorescein(5-Mal))-NH2 / II: {CH2CO}-[dW]LYLDDCGDWWICGAC(Fluorescein(5-Mal))-NH2; linker I:7-II:7 via CH2; thioether I:N-I:13, II:N-II:13)",cellular uptake / permeability and localization,[3],permeability and cytosolic localization
same,cellular uptake / permeability and localization,[3]; listed as (Ub4_ix_S7C)2CH2-FITC,quickly and efficiently distributed within cells
same,Kd,[4],12.3 ± 1.26 nM
